Data on five compounds can be found in patent US20250243170A1, “REMIBRUTINIB DRUG SUBSTANCE AND DRUG PRODUCT SUBSTANTIALLY FREE OF NITROSAMINE IMPURITY” (NOVARTIS AG, priority 2024, published 2025).

Values joined by “and” are separate entries in the source; they are usually repeats but may differ in a detail not shown here. Equal entries are not always repeated. “Also recorded” adds a separate entry of the source.

A short description of data set [1]: Additional stress testing of F8 (inert gas, open vial, light). Particulars: for formation of nitrosamine upon storage: several days, room temperature. The data set is classed as physicochemical. The text has this: (§1) The impact of protective gas (nitrogen) for storage vs storage in non-protected atmosphere, of light exposed vs dark conditions and the effect of temperature was investigated. In addition, the stability study samples pulled after 12 M of storage at different temperature and humidity were included into the assessment.

Data set [2] can be described thus: Stability of F8: nitrosamine content after 12 months storage. The data set is classed as physicochemical. The note with it: for growth of nitrosamine-content upon storage / change of nitrosamine-content upon storage: 12M; for Nitrosamine content in F8: double polyethylene-bags. As for the experimental part: (§2) • Limit-test by LC-MS (SIM mode), AJS-ES, positive mode, SIM Ion: 483.2 [M+H]+ • Column: YMC-Triart C18, 100×3.0 mm, particle size 1.9 μm, 12 nm • Mobile phase A: Dissolve 0.315 g of Ammonium formate in 1000 ml of water, add 0.5 ml of formic acid • Mobile phase B: Methanol • Sample solvent: Methanol+0.2% (v/v) Formic acid • Sample solution: approx. 100 mg of the sample in 20 mL • Flow: 0.6 mL/min • Injection volume: 3 μL • Autosampler cooled, 8° C. • Column temperature. 80° C. • Gradient: […]
as §1

Data set [3] can be described thus: Stability of intermediate F8: nitrosamine content upon air exposure. The data set is classed as physicochemical. As to the method: as §2
The nature of data set [4]: Accelerated predictive stability (APS) of LOU064 drug substance, open dish. The data set is classed as physicochemical. The note with it: for Nitrosamine impurity: open dish. As to the method:
(§3) • Limit-test by LC-MS (SIM mode), AJS-ES, positive mode, SIM Ion: 483.2 [M+H]+ • Column: YMC-Triart C18, 100×3.0 mm, particle size 1.9 μm, 12 nm • Mobile phase A: Dissolve 0.315 g of Ammonium formate in 1000 ml of water, add 0.5 mL of formic acid • Mobile phase B: Methanol • Sample solvent: Methanol+0.2% (v/v) Formic acid • Sample solution: approx. 100 mg of the sample in 20 mL • Flow: 0.6 mL/min • Injection volume: 3 μL • Autosampler cooled, 8° C. • Column temperature. 80° C. • Gradient: […]
A statistical based approach, Accelerated Predictive Stability (APS), using the humidity modified Arrhenius equation [Waterman and al., International Journal of Pharmaceutics 293 (1-2), 101-125 (2005)] is applied to understand stability behavior and predict the retest period. […] Short studies are conducted on open dish samples of representative batch(es) of drug substance at accelerated conditions using a wide range of temperatures and humidity with the goal of reaching the specification limit for the identified retest period limiting attributes at each condition as detailed below. […] The humidity corrected Arrhenius equation reflects both the influence of the temperature, and the moisture on the kinetics of the degradation product formation. The resulting open-dish data are fitted to a humidity-corrected Arrhenius equation^1 using ASAPprime® (current version 6.0): […]
3 batches of LOU064 drug substance were placed in open dish under the protocol summarized below:
(§4) The pulled samples were analyzed by HPLC-MS as per method described in example 1 and reported below in tables 8 and 9.

The nature of data set [5]: APS of LOU064 drug substance, closed vessel with or without nitrogen purge. In kind it is physicochemical. As for the experimental part:
as §3
Samples of batches of LOU064 drug substance were prepared in duplicated in closed container, with one sample being purged with nitrogen and the other not.
as §4

Data set [6] concerns Salmonella typhimurium strain TA98. Briefly: Enhanced Ames Test (EAT), strain TA98. Particulars: TA98, presence of hamster S-9. As to the method: (§5) N-(3-(6-amino-5-(2(methyl)(nitroso)amino)ethoxy)pyrimidin-4-yl)-5-fluoro-2-methylphenyl)-4-cyclopropyl-2-fluorobenzamide was evaluated in the EAT performed under GLP following the EMA and FDA guidance (2023) for the EAT conditions for N-nitrosamines.
(§6) In this study N-(3-(6-amino-5-(2(methyl)(nitroso)amino)ethoxy)pyrimidin-4-yl)-5-fluoro-2-methylphenyl)-4-cyclopropyl-2-fluorobenzamide was evaluated for mutations in Salmonella typhimurium strains TA98, TA100, TA1535 and TA1537 and Escherichia coli strain WP2 uvrA pKM101, both in the absence and presence of 30% rat and hamster metabolic activation (β-naphthoflavone/phenobarbital-induced rat and hamster liver post-mitochondrial S-9 fraction). The test used pre-incubation method (30 minutes). N-(3-(6-amino-5-(2(methyl)(nitroso)amino)ethoxy)pyrimidin-4-yl)-5-fluoro-2-methylphenyl)-4-cyclopropyl-2-fluorobenzamide was formulated in dimethyl sulfoxide (DMSO) at concentrations of 5, 16, 50, 160, 500, 1600 and 5000 μg/plate.
(§7) Following the recommendations of the EAT, in addition to the concurrent strain-specific positive controls, two nitrosamine positive controls, i.e. N-nitrosodiethylamine (NDEA) and N-methyl-N-nitroso-(2-phenylethyl)amine (MNPA) were used that are known to be mutagenic in the presence of S-9.

Data set [7] relates to Salmonella typhimurium strains TA98, TA100, TA1535 and TA1537 and Escherichia coli strain WP2 uvrA pKM101. Kind of data set: Enhanced Ames Test (EAT), all tester strains. The data set is classed as cell-based. As for the experimental part: The test used pre-incubation method (30 minutes).
Data set [8] in a line: Formulation analyses of EAT dosing formulations in DMSO. In kind it is physicochemical. The note with it: 6 hrs at room temperature.
Data set [9] deals with Salmonella typhimurium strain TA1535. Kind of data set: Enhanced Ames Test (EAT), strain TA1535. The note with it: TA1535, presence of hamster S-9. As for the experimental part:
as §5, §6, §7

The test system of data set [10] is Salmonella typhimurium strain TA100. Kind of data set: Enhanced Ames Test (EAT), strain TA100. As to the method: as §5, §6, §7

In the case of `CNCCOc1c(N)ncnc1-c1cc(F)cc(NC(=O)c2ccc(C3CC3)cc2F)c1C` [F8], the “effect of exposure to light on nitrosamine formation” value in data set [1] (light exposed vs dark) is recorded as “slightly accelerate conversion of F8 into nitrosamine”. For the same compound, the “formation of nitrosamine upon storage” value in data set [1] (open vial) was “rapid increase”; in data set [1] (stored under inert gas) it was “only a minor, yet constant formation of nitrosamine”. Moreover, the “growth of nitrosamine-content upon storage” value in [2] (30° C./65% RH) and in [2] (40° C./75% RH) was above 100% in each case. Moreover, the entries for the “change of nitrosamine-content upon storage” value in data set [2] (cold (5° C.)) and in data set [2] (frozen (−20° C.)) were “only a minor rise” and “no increase”, respectively. Moreover, the “Nitrosamine content in F8” value in data set [2] (12 months, 5° C.) worked out at 323 ppb; in [2] (12 months, 30° C., 65% RH), 595 ppb; in [2] (12 months, 40° C., 75% RH), 647 ppb; in [2] (12 months, −20° C.) it was 276 ppb; in data set [2] (T0), 300 ppb. Further, the “Nitrosamine in F8” value in data set [3] (Analyzed after 52 h air exp.) is recorded as 533 ppb; in [3] (Analyzed directly after weighting the sample) it was 86 ppb.

`C=CC(=O)N(C)CCOc1c(N)ncnc1-c1cc(F)cc(NC(=O)c2ccc(C3CC3)cc2F)c1C` [LOU064 drug substance, N-(3-(6-Amino-5-(2-(N-methylacrylamido)ethoxy)pyrimidin-4-yl)-5-fluoro-2-methylphenyl)-4-cyclopropyl-2-fluorobenzamide]: the “stability behavior of the nitrosamine impurity” value in data set [4] (all APS open dish conditions) is listed as “stable”. Further, the Nitrosamine impurity is 74.9 ppb in data set [4] (50° C., 75% RH, 14 days); 75.8 ppb in [4] (50° C., 75% RH, 21 days); 106.5 ppb and 106.8 ppb in [4] (50° C., 75% RH, 28 days); 87.1 ppb in data set [4] (60° C., 11% RH, 21 days); 113.5 ppb in data set [4] (60° C., 11% RH, 28 days); 77.0 ppb in data set [4] (60° C., 50% RH, 14 days). Further, the Nitrosamine impurity was 106.6 ppb in data set [4] (60° C., 50% RH, 28 days); 69.8 ppb in data set [4] (60° C., 75% RH, 14 days); 82.7 ppb in data set [4] (60° C., 75% RH, 21 days); 119.1 ppb in [4] (60° C., 75% RH, 28 days); 77.9 ppb in data set [4] (70° C., 31% RH, 14 days); 113.3 ppb in [4] (70° C., 31% RH, 28 days). Further, the Nitrosamine impurity is listed as 83.2 ppb in data set [4] (70° C., 50% RH, 21 days); 108.3 ppb in data set [4] (70° C., 50% RH, 28 days); 82.6 ppb in [4] (70° C., 75% RH, 14 days); 83.2 ppb in data set [4] (70° C., 75% RH, 21 days); 105.3 ppb in data set [4] (80° C., 51% RH, 7 days); 75.5 ppb in [4] (80° C., 51% RH, 21 days). The Nitrosamine impurity in data set [4] (initial, 0 days) is 99.1 ppb. Moreover, the “nitrosamine, stored closed under nitrogen versus closed without nitrogen” value in data set [5] (60-80° C., up to 27 days) is “no difference observed beyond analytical variability”. For the same compound, the “Nitrosamine without Nitrogen purge” value in data set [5] (60° C., 21 days) is 72.5 ppb; in [5] (60° C., 27 days), 109.8 ppb; in data set [5] (70° C., 21 days), 67.0 ppb; in [5] (70° C., 27 days), 116.0 ppb; in data set [5] (80° C., 21 days), 59.6 ppb; in data set [5] (80° C., 27 days) it was 114.7 ppb. Besides, the “Nitrosamine without Nitrogen purge” value in data set [5] (initial, 0 days) stood at 99.1 ppb. Further, the “nitrosamine with Nitrogen purge” value in data set [5] (60° C., 21 days) was found to be 86.5 ppb; in data set [5] (60° C., 27 days), 110.4 ppb; in data set [5] (70° C., 21 days), 76.6 ppb; in data set [5] (70° C., 27 days) it was 109.4 ppb; in data set [5] (80° C., 21 days) it was 54.8 ppb; in data set [5] (80° C., 27 days), 119.2 ppb. The “nitrosamine with Nitrogen purge” value in [5] (initial, 0 days) is 99.1 ppb.

Consider `CN(CCc1ccccc1)N=O` [MNPA, N-methyl-N-nitroso-(2-phenylethyl)amine], for which the “increase in revertant numbers” value in [6] is reported as “up to 1.9 fold”.

In the case of `Cc1c(NC(=O)c2ccc(C3CC3)cc2F)cc(F)cc1-c1ncnc(N)c1OCCN(C)N=O` [N-(3-(6-amino-5-(2(methyl)(nitroso)amino)ethoxy)pyrimidin-4-yl)-5-fluoro-2-methylphenyl)-4-cyclopropyl-2-fluorobenzamide], the “mutagenicity in the presence of rat S-9” value in [7] (30% rat S-9) was “not mutagenic”. In addition, the “Enhanced Ames Test (EAT) result” value in [7] (GLP, EMA and FDA guidance (2023) EAT conditions for N-nitrosamines, pre-incubation 30 minutes, 5-5000 μg/plate) was “positive; also recorded: mutagenic under sensitive metabolic conditions”. Besides, the “mutagenicity without metabolic activation” value in data set [7] (absence of S-9) is given as “not mutagenic”. The Precipitation observed at in data set [7] (all tester strains, absence and presence of S-9, formulated in DMSO) was 1600 μg/plate and/or 5000 μg/plate. The “stability and homogenicity in the formulations” value in data set [8] was “demonstrated stability and homogenicity”. Further, the “increase in revertant numbers” value is listed as at least 3 fold in data set [9] and at least 2 fold in data set [10] (TA100, presence of hamster S-9).

As to `CCN(CC)N=O` [NDEA, N-nitrosodiethylamine, reference compound], the “increase in revertant numbers” value in data set [10] (TA100, presence of 30% rat S-9) is given as above 2 fold.
